Legend:
Type in all cases: in vivo
Eysarcoris lewisi = assay: Pesticidal test against Eysarcoris lewisi, treated peanut seeds (Test Example 4); settings: 168 h, peanut seeds immersed 1 minute, adults, 7th day after release, read-out: rate of dead or moribund pests
Method: Then, 3 to 5 seeds of peanut were immersed in the test liquid, which had been prepared as described above, for 1 minute. After the test liquid treated the seeds of peanut was dried with a paper towel, a filter paper moistened with 1 ml of water was placed on a bottom of polyethylene cup and then the seeds of peanut was placed on it. Six to eight adults of Eysarcoris lewisi were set free in the polyethylene cup, which was then kept covered and left in a greenhouse at 25° C. On the 7th day after the release of Eysarcoris lewisi, the number of dead pests and moribund pests was examined.

[1] = tested on: Leptinotarsa decemlineata; assay: Pesticidal test against Leptinotarsa decemlineata, eggplant leaf dip (Test Example 5); settings: foliar, 120 h, eggplant leaf immersed 1 minute, second-instar larvae, 5th day after release, read-out: rate of dead or moribund pests
Method: A leaf of eggplant was immersed in the test liquid, which had been prepared as described above, for 1 minute. After the test liquid treated the leaf of eggplant was dried with a paper towel, the leaf of eggplant was placed in a polyethylene cup of 3 cm in diameter. One second-instar larvae of Leptinotarsa decemlineata (Colorado potato beetle) were set free in the polyethylene cup, which was then kept covered and left in a greenhouse at 25° C. This test was done ten times for one compound. On the 5th day after the release of Leptinotarsa decemlineata, the number of dead pests and moribund pests was examined.

Ctenocephalides felis = assay: Pesticidal test against Ctenocephalides felis, treated filter paper (Test Example 9); settings: 200 mg/m^2 on filter paper (acetone solution), twenty adults, after 24 hours
Method: Each of the compound 8, 15, 19, 21 and 34 was dissolved in acetone to give a 0.2 ml solution of 0.114% w/w, which was uniformly treated on a filter paper having 3.8cm in diameter, and air-dried. The amount of active ingredient was 200 mg/m^2. The filter paper was filled in a lid of a 200 ml glass bottle. Twenty adult Ctenocephalides felis (cat flea) were released in the glass bottle, which was followed by covering with the lid. The glass bottle was upset for making the fleas contact with the filter paper. After 24 hours, the mortality was examined.

Musca domestica = assay: Pesticidal test against Musca domestica, filter paper with sucrose bait (Test Example 6); settings: 500 ppm, 0.7 ml on filter paper, ten female adults, after 24 hours, read-out: mortality
Method: Ten female adults of Musca domestics (house fly) were set free in the polyethylene cup, which was then kept covered. After 24 hours, their survival was examined to determine the mortality.

Question: With `N#CC(C#N)(CCC(F)(F)C(F)(F)F)Cc1ccc(C(F)(F)F)cc1` [Compound 8, 2-(3,3,4,4,4-pentafluorobutyl)-2-(4-(trifluoromethyl)benzyl)malononitrile] as the compound, how does the pest or weed control at 100 ppm (Eysarcoris lewisi) read?
Answer: 100%

Question: And the pest or weed control at 1.6 ppm [1]?
Answer: > 80%

Question: What about the mortality at 200 mg/m2 (Ctenocephalides felis) of the same compound?
Answer: 100%

Question: And the mortality at 500 ppm (Musca domestica)?
Answer: 100%

Question: Which pest or weed control at 1.6 ppm [1] does the source give for `N#CC(C#N)(CCC(F)(F)F)Cc1ccc(Cl)cc1` [Compound 15, 2-(4-chlorobenzyl)-2-(3,3,3-trifluoropropyl)malononitrile] here?
Answer: > 80%

Question: What about the mortality at 200 mg/m2 (Ctenocephalides felis) of the same compound?
Answer: 100%

Question: And the mortality at 500 ppm (Musca domestica)?
Answer: 100%

Question: Which pest or weed control at 100 ppm (Eysarcoris lewisi) does the source give for `N#CC(C#N)(CCC(F)(F)F)Cc1ccc(Cl)c(Cl)c1` [Compound 21, 2-(3,4-dichlorobenzyl)-2-(3,3,3-trifluoropropyl)malononitrile] here?
Answer: 100%

Question: And the pest or weed control at 1.6 ppm [1]?
Answer: > 80%

Question: What about the mortality at 200 mg/m2 (Ctenocephalides felis) of the same compound?
Answer: 100%

Question: What about the mortality at 500 ppm (Musca domestica) of the same compound?
Answer: 100%

Question: What does the source list for `CSc1ccc(CC(C#N)(C#N)CCC(F)(F)F)cc1` [Compound 34, 2-(4-(methylthio)benzyl)-2-(3,3,3-trifluoropropyl)malononitrile]?
Answer: mortality at 200 mg/m2 (Ctenocephalides felis): 100%; mortality at 500 ppm (Musca domestica): 100%

Reference: patent US7402691B2, “Malononitrile compounds and their use as pesticides” (Sumitomo Chemical Company, Limited, priority 2001, dated 2008)
